In the NIST ThermoML archive (doi:10.1016/j.jct.2004.12.008):
Numbers after ± are expanded uncertainties.

Assays:
[1] = refractive index (Na D-line) (dimensionless); conditions: 293.15 K; 101.33 kPa; Liquid; Standard Abbe refractometry
[2] = 101 kPa, Liquid
[3] = xn = mol fraction of the nth substance listed; conditions: 101 kPa, Liquid

| SMILES | refractive index [1] | mass density ([2]; 293.15 K) [kg/m3] | mass density ([2]; 303.15 K) [kg/m3] | mass density ([2]; 313.15 K) [kg/m3] | mass density ([2]; 323.15 K) [kg/m3] | mass density ([3]; 293.15 K, x1 = 1) [kg/m3] | mass density ([3]; 303.15 K, x1 = 1) [kg/m3] | mass density ([3]; 313.15 K, x1 = 1) [kg/m3] | mass density ([3]; 323.15 K, x1 = 1) [kg/m3] | mass density ([2]; 333.15 K) [kg/m3] | mass density ([2]; 343.15 K) [kg/m3] | mass density ([2]; 353.15 K) [kg/m3] | mass density ([3]; 333.15 K, x1 = 1) [kg/m3] | mass density ([3]; 343.15 K, x1 = 1) [kg/m3] | further results |
| --- | --- | --- | --- | --- | --- | --- | --- | --- | --- | --- | --- | --- | --- | --- | --- |
| Cc1ccccc1C [1,2-dimethylbenzene] | 1.50573 ± 0.00072 | 878.6 ± 1.6 | 872.25 ± 1.7 | 859.67 ± 1.8 | 840.84 ± 1.9 |  |  |  |  |  |  |  |  |  |  |
| Cc1ccccc1C [1,2-dimethylbenzene] + O=[N+]([O-])c1ccccc1 |  |  |  |  |  | 878.6 ± 1.6 | 872.25 ± 1.7 | 859.67 ± 1.8 | 840.84 ± 1.9 |  |  |  |  |  |  |
| Cc1cccc(C)c1 [1,3-dimethylbenzene] | 1.49735 ± 0.00082 | 864.2 ± 2.5 | 855.76 ± 2.6 | 847.11 ± 2.6 | 838.27 ± 2.7 |  |  |  |  | 829.22 ± 2.7 | 819.97 ± 2.8 | 810.51 ± 2.9 |  |  |  |
| Cc1cccc(C)c1 [1,3-dimethylbenzene] + O=[N+]([O-])c1ccccc1 |  |  |  |  |  | 864.2 ± 2.5 | 855.76 ± 2.6 | 847.11 ± 2.6 | 838.27 ± 2.7 |  |  |  | 829.22 ± 2.7 | 819.97 ± 2.8 | mass density ([3]; 353.15 K, x1 = 1): 810.51 ± 2.9 kg/m3 |
| Cc1ccc(C)cc1 [1,4-dimethylbenzene] | 1.49577 ± 0.00075 | 861 ± 1.9 | 852.28 ± 2 | 843.58 ± 2.1 | 834.92 ± 2.1 |  |  |  |  | 826.27 ± 2.2 | 817.66 ± 2.3 | 809.07 ± 2.4 |  |  |  |
| Cc1ccc(C)cc1 [1,4-dimethylbenzene] + O=[N+]([O-])c1ccccc1 |  |  |  |  |  | 861 ± 1.9 | 852.28 ± 2 | 843.58 ± 2.1 | 834.92 ± 2.1 |  |  |  | 826.27 ± 2.2 | 817.66 ± 2.3 | mass density ([3]; 353.15 K, x1 = 1): 809.07 ± 2.4 kg/m3 |
| c1ccccc1 [benzene] | 1.5009 ± 0.0007 | 877.8 ± 1.6 | 867.99 ± 1.7 | 857.87 ± 1.8 | 847.4 ± 1.9 |  |  |  |  | 836.59 ± 2 | 825.42 ± 2.1 |  |  |  |  |
| c1ccccc1 [benzene] + O=[N+]([O-])c1ccccc1 |  |  |  |  |  | 877.8 ± 1.6 | 867.99 ± 1.7 | 857.87 ± 1.8 | 847.4 ± 1.9 |  |  |  | 836.59 ± 2 | 825.42 ± 2.1 |  |
| CCc1ccccc1 [ethylbenzene] | 1.4962 ± 0.0008 | 867.82 ± 14 | 858.6 ± 14 | 851.85 ± 15 |  |  |  |  |  |  |  |  |  |  |  |
| CCc1ccccc1 [ethylbenzene] + O=[N+]([O-])c1ccccc1 |  |  |  |  |  | 867.82 ± 14 | 858.6 ± 14 | 851.85 ± 15 | 847.58 ± 15 |  |  |  | 845.79 ± 15 | 846.48 ± 15 |  |
| O=[N+]([O-])c1ccccc1 [nitrobenzene] | 1.55488 ± 0.00072 | 1202.95 ± 2.3 | 1193.56 ± 2.2 | 1183.37 ± 2.1 | 1172.38 ± 2 |  |  |  |  | 1160.59 ± 1.9 | 1148 ± 1.9 | 1134.61 ± 1.8 |  |  |  |
| O=[N+]([O-])c1ccccc1 [nitrobenzene] + C=Cc1ccccc1 |  |  |  |  |  |  |  |  |  |  |  |  |  |  | mass density ([3]; 293.15 K, x2 = 0): 1202.95 ± 2.3 kg/m3; mass density ([3]; 303.15 K, x2 = 0): 1193.56 ± 2.2 kg/m3; mass density ([3]; 313.15 K, x2 = 0): 1183.37 ± 2.1 kg/m3; mass density ([3]; 323.15 K, x2 = 0): 1172.38 ± 2 kg/m3; mass density ([3]; 333.15 K, x2 = 0): 1160.59 ± 1.9 kg/m3; mass density ([3]; 343.15 K, x2 = 0): 1148 ± 1.9 kg/m3; mass density ([3]; 353.15 K, x2 = 0): 1134.61 ± 1.8 kg/m3 |
| C=Cc1ccccc1 [styrene] | 1.546 ± 0.0007 | 906 ± 1.4 | 896.44 ± 1.5 | 886.88 ± 1.6 | 877.32 ± 1.6 |  |  |  |  | 867.76 ± 1.7 | 858.2 ± 1.8 | 848.64 ± 1.9 |  |  |  |
| Cc1ccccc1 [toluene] | 1.4965 ± 0.0008 | 866.75 ± 2.5 | 857.53 ± 2.6 | 848.25 ± 2.6 | 838.9 ± 2.7 |  |  |  |  | 829.5 ± 2.7 | 820.03 ± 2.8 | 810.5 ± 2.9 |  |  |  |
| Cc1ccccc1 [toluene] + O=[N+]([O-])c1ccccc1 |  |  |  |  |  | 866.75 ± 2.5 | 857.53 ± 2.6 | 848.25 ± 2.6 | 838.9 ± 2.7 |  |  |  | 829.5 ± 2.7 | 820.03 ± 2.8 | mass density ([3]; 353.15 K, x1 = 1): 810.5 ± 2.9 kg/m3 |
